# Data: US10376481B2, “Compounds and methods for inhibiting NHE-mediated antiport in the treatment of disorders associated with fluid retention or salt overload and gastrointestinal tract disorders” (ARDELYX, INC, priority 2012, dated 2019)
# Experiments:
# [1] = tested on: apical acid secretion, human ileum monolayer culture; assay: Sustained inhibition of apical acid secretion in human organoid monolayer cell cultures (ileum); format: cell-based; conditions: 1 μM apical dosing day 6, apical media pH day 8, inhibition of apical acid secretion vs DMSO
# Method: (§1) Basal media (BM) consisted of advanced DMEM/F12 containing 10 mM HEPES (Invitrogen, 15630-080), 1:100 Glutamax (Invitrogen, 35050-061), and 1:100 penicillin/streptomycin (Invitrogen, 15140-122). […] Growth factors used included 50 ng per mL mouse EGF (Peprotech, 315-09), 100 ng per mL mouse noggin (Peprotech, 250-38), 500 ng per mL human R-spondin 1 (R&D, 4645-RS), 100 ng per mL mouse Wnt-3a (R&D, 1324-WN), 20 μM Y-27632 (Tocris, 1254), 10 mM nicotinamide (Sigma, N0636), 500 nM A83-01 (Tocris, 2939), 10 μM SB202190 (Tocris, 1264). Transwells were 0.4 μm pore polyester membrane 24-well Transwell inserts (Corning). Cultures were incubated at 37° C. in 5% CO2.
# Human ileum organoids were cultured in WENRNAS (Wnt, EGF, noggin, R-spondin1, Nicotinamide, A83-01, SB202190) and typically grown for 7-12 days before being used to plate monolayer cultures. On day 0, organoid cultures embedded in Matrigel were treated with TrypLE Express to break organoids into small pieces and/or single cells. […]
# Each human ileum monolayer culture well was washed twice with fresh SBM on the apical side on day 6 before compound dosing. […] On day 8, apical media pH was measured by pH meter, to determine the ability of example compounds to produce sustained inhibition of NHE3 activity in a human monolayer culture system by preventing proton secretion into the apical compartment.
# [2] = tested on: tight junction permeability, human duodenum monolayer culture; assay: Increased trans-epithelial resistance (TEER) in human organoid monolayer cell cultures; format: cell-based; conditions: 1 μM apical, baseline corrected
# Method: as §1
# Human duodenum organoids were cultured in WENRNAS (Wnt, EGF, noggin, R-spondin1, Nicotinamide, A83-01, SB202190) and typically grown for 7-12 days before being used to plate monolayer cultures. […]
# Each human duodenum monolayer culture well was washed twice with fresh SBM on the apical side on day 6 or day 7 before dosing. […] Transepithelial electrical resistance (TEER) was used as a quantitative technique to measure of tight junction permeability. TEER values were recorded (MERS00002, Millipore) before dosing and 30 mins and 1 hr after dosing for all wells. […] Baseline corrected TEER for each example compound was compared to the average of the DMSO wells and expressed as a percent TEER of vehicle control.
# Plasma PK = format: in vivo, Sprague-Dawley rats; conditions: Sprague-Dawley, rat plasma, oral gavage, nominal dose 15 mg/kg, mean of n=3
# Method: Sprague-Dawley rats (n=3) were dosed with test compound by oral gavage. Blood samples were collected at 0.5, 1, 2 and 4 h by retro-orbital bleeds and processed to plasma using K2EDTA as an anticoagulant. Plasma samples were treated with acetonitrile containing an internal standard and precipitated proteins were removed by centrifugation. Supernatants were analyzed by LC-MS/MS and compound concentrations were determined by interpolation from a standard calibration curve prepared in plasma. Accurate recovery of quality control samples was confirmed to accept each analytical run. Table 5 illustrates data from the pharmacokinetic profiling of an example compound, for which pharmacokinetic parameters were determined.
# [3] = tested on: apical acid secretion, human duodenum monolayer culture; assay: Sustained inhibition of apical acid secretion in human organoid monolayer cell cultures (duodenum); format: cell-based; conditions: 1 μM apical dosing, inhibition of apical acid secretion vs DMSO
structure (smiles),measurement,setting,value
"CN(C)[C@H]1Cc2c(Cl)cc(Cl)cc2[C@@H]1Oc1ccc(S(=O)(=O)NCCOCCOCCNC(=O)NCCCCNC(=O)NCCOCCOCCNS(=O)(=O)c2ccc(O[C@H]3c4cc(Cl)cc(Cl)c4C[C@@H]3N(C)C)cc2)cc1 [Example 1, (S,S)—N,N′-(10,17-dioxo-3,6,21,24-tetraoxa-9,11,16,18-tetraazahexacosane-1,26-diyl)bis(4-((1S,2S)-4,6-dichloro-2-(dimethylamino)-2,3-dihydro-1H-inden-1-yloxy)benzenesulfonamide)]",% inhibition (ileum),[1],B (50-70%)
same,TEER at 30 minutes (% of Vehicle),[2]; 30 mins after dosing,B (100-130%)
same,TEER at 60 minutes (% of Vehicle),[2]; 1 hr after dosing,B (100-130%)
same,Cmax,Plasma PK; LLOQ 0.2 ng/mL,1 ng/mL
same,AUC,Plasma PK; samples 0.5-4 h,< 3 ng·h/mL
same,% inhibition (duodenum),[3],C (>70%)
